Measurements reported in ChEMBL document CHEMBL1151654, “Antineoplastic and piscicidal 1-alkyldaphnane orthoesters from Pimelea species” (J Nat Prod, 1985).

Tests used:
Gambusia affinis = assay: Toxicity against Gambusia affinis at 30 to 60 ug/L within 24 hrs; format: organism-based; settings: in vivo
P388 [1] = assay: In vivo antitumor activity against mouse P388 cells at 100 ug/kg relative to control; format: functional
P388 [2] = assay: In vivo antitumor activity against mouse P388 cells at 300 ug/kg relative to control; format: functional

Q: How did the Activity (Gambusia affinis) turn out when `C=C(C)[C@@]12C[C@@H](COC(=O)c3ccccc3)[C@@]34OC5(O[C@@H]1[C@@H]3[C@@H]1O[C@]1(CO)[C@@H](O)[C@@]1(O)[C@H]4[C@H]([C@H](C)[C@@H]1OC(=O)c1ccccc1)[C@H](C)CCCCCC[C@H]5O)O2` [GNIDIMACRIN] was run?
A: Toxic

Q: Which Activity (Gambusia affinis) does the source give for `C=C(C)[C@@]12C[C@@H](C)[C@@]34OC5(O[C@@H]1[C@@H]3[C@@H]1O[C@]1(CO)[C@@H](O)[C@@]1(O)[C@H]4[C@H]([C@H](C)[C@@H]1OC(=O)c1ccccc1)[C@H](C)CCCCCC[C@H]5O)O2` [KRAUSSIANIN] here?
A: Toxic

Q: What does the source list for `C=C1C(=O)O[C@H]2C[C@@H](C)[C@@H]3C=CC(=O)[C@@]3(C)[C@H](OC(C)=O)[C@H]12` [LINIFOLIN A]?
A: T/C (P388 [1]): 107%; Activity (Gambusia affinis): Toxic

Q: How did the Activity (Gambusia affinis) turn out when `C=C(C)[C@@]12C[C@@H](C)[C@@]34OC5(O[C@@H]1[C@@H]3[C@@H]1O[C@]1(CO)[C@@H](O)[C@@]1(O)[C@H]4[C@H]([C@H](C)[C@@H]1OC(=O)c1ccccc1)[C@@H](C)CCCCCC[C@H]5O)O2` [LINIMACRIN C] was run?
A: Toxic

Q: With `C=C(C)[C@]12OC34CCCCCCC[C@@H](C)[C@H]5[C@H](C)[C@H](OC(=O)c6ccccc6)[C@@]6(O)[C@H](O)[C@@]7(CO)O[C@H]7[C@@H]([C@H]1O3)[C@](O4)([C@H](C)[C@H]2OC(C)=O)[C@H]56` [LINIMACRIN D] as the molecule, how does the T/C (P388 [2]) read?
A: 132%

Q: What about the Activity (Gambusia affinis) of the same molecule?
A: Toxic

Q: How did the Activity (Gambusia affinis) turn out when `C=C(C)[C@]12C[C@@H](C)[C@@]34OC5(CCCCCCC[C@H](C)[C@H]6[C@H](C)[C@H](OC(=O)c7ccccc7)[C@@](O)([C@H](O)[C@@]7(CO)O[C@H]7[C@H]3[C@H]1O5)[C@@H]64)O2` [PIMELEA FACTOR P2] was run?
A: Toxic

Q: Which T/C (P388 [2]) does the source give for `C=C(C)[C@@]12C[C@@H](C)[C@@]34OC5(CCCCCCC[C@@H](C)[C@H]6[C@H](C)[C@H](OC(=O)c7ccccc7)[C@@](O)([C@H](O)[C@@]7(CO)O[C@H]7[C@H]3[C@H]1O5)[C@@H]64)O2` [PIMELEA FACTOR P3] here?
A: 164%

Q: What about the Activity (Gambusia affinis) of the same molecule?
A: Toxic

Q: Which Activity (Gambusia affinis) does the source give for `C=C(C)[C@@]12C[C@@H](COC(=O)c3ccccc3)[C@@]34OC5(O[C@@H]1[C@@H]3[C@@H]1O[C@]1(CO)[C@@H](O)[C@@]1(O)[C@H]4[C@H]([C@H](C)[C@@H]1OC(=O)c1ccc(OC(C)=O)cc1)[C@H](C)CCCCCC[C@H]5O)O2` [SIMPLEXIMACRIN] here?
A: Toxic
